Laboratory results: article PMC9925730, “Controlled sequential in situ self-assembly and disassembly of a fluorogenic cisplatin prodrug for cancer theranostics” (Nature Communications, 2023)

Legend:
[1] = molecular target: T1, ALP (Bos taurus, UniProt P19111); assay: ALP-triggered dephosphorylation and in situ self-assembly in solution (HPLC, DLS, TEM); format: biochemical; set-up: amount of compound in the P-CyPt solution (HPLC, Fig. 2h) / mean size by TEM (Fig. 2i) / mean size by DLS (Fig. 2i): unit not given here; conditions: for amount of compound in the P-CyPt solution (HPLC, Fig. 2h) / Pt release (ICP-OES, Fig. 2h) / mean size by DLS (Fig. 2i) / mean size by TEM (Fig. 2i): P-CyPt 10 μM, ALP 100 U/L 37 °C
T1 construct: Alkaline phosphatase from bovine; purchased Sigma-Aldrich; host or cells: bovine intestinal mucosa (tissue-derived)
Description: (§1) To evaluate the ALP-triggered dephosphorylation and in situ self-assembly process, a solution of P-CyPt (10 μM) in Tris buffer (1 mL) was incubated with ALP (100 U/L) at 37 °C. HPLC, DLS, and TEM analyses were performed at 0, 5, 10, 15, 20, and 30 min. To evaluate the GSH-triggered reduction and disassembly process, P-CyPt (10 μM) in Tris buffer (1 mL) was first incubated with ALP (100 U/L) at 37 °C for 30 min to allow the formation of Pt^IVNPs. The solution was then treated with 10 mM GSH at 37 °C, which was monitored by HPLC, DLS, and TEM at 10, 20, 30, 40, 50, and 60 min.

[2] = GSH-triggered reduction, disassembly of Pt^IVNPs and CDDP release in solution (HPLC, DLS, TEM, ICP-OES); set-up: amount of compound in the P-CyPt solution (HPLC, Fig. 2h) / mean size by TEM (Fig. 2i) / mean size by DLS (Fig. 2i): unit not given here; conditions: for amount of compound in the P-CyPt solution (HPLC, Fig. 2h) / Pt release (ICP-OES, Fig. 2h) / mean size by DLS (Fig. 2i) / mean size by TEM (Fig. 2i): P-CyPt 10 μM
Description: as §1
(a) 5 mM GSH 10 mM GSH(b ) (c)
60 min 60 min CyPt Cy- CO O H
Time (min) Time (min) Time (min)
Supplementary Figure 9. HPLC traces of the time-dependent conversion of PtIVNPs (CyPt) into Cy-COOH under incubation with 5 mM (a) or 10 mM GSH (b) in Tris buffer. (c) The conversion curves of PtIVNPs (CyPt) into Cy-COOH under incubation with 5 mM (red) or 10 mM GSH (black) in Tris buffer. P-CyPt (10 μM) was incubated with ALP (100 U/L, 37 °C) in Tris buffer for 30 min to allow complete dephosphorylation and in situ self-assembly into PtIVNPs. Then, GSH at a concentration of 5 mM or 10 mM was added and incubated for another 0, 10, 20, 30, 40, 50, and 60 min. The amounts of CyPt and Cy-COOH at each time point were quantified by HPLC.
Date are mean ± s.d. (n = 3 independent experiments). […]
Release of CDDP from PtIVNPs during disassembly process. P-CyPt (10 μM) in 5 mL Tris buffer was incubated with ALP (100 U/L) at 37 °C for 30 min to form PtIVNPs, followed by addition with 10 mM GSH at 37 °C. After 10, 20, 30, 40, 50 and 60 min, 50 mM N-ethylmaleimide was added into the solution to scavenge GSH. The reaction solution was centrifuged at 13,000 × g and the supernatant was collected. The supernatants were digested with concentrated HNO3 (65~70%) and HCl (36~38%) at 90 °C for 24 h. The solution was diluted to 5 mL 2% HNO3 and 5% HCl solution, and the concentration of Pt element was measured by ICP-OES, which was further applied to calculate the amount of CDDP (denoted as NPt) released in the solution. The percentage of Pt release at each time point was calculated according to the formula:
Pt release % = NPt/N0 × 100% (9)
Where N0 represents the total amount of Pt in the in situ formed PtIVNPs, and NPt represents the amount of Pt released from PtIVNPs following incubation with GSH.
Characterization of enzyme kinetics of P-CyPt towards ALP. Briefly, varying concentrations of P-CyPt (0.5, 1.0, 2.0, 3.0, 4.0, and 5.0 μM) in 100 μL Tris buffer were placed in a 96-well black plate. The reactions were initiated upon addition of 100 μL ALP (30 U/L) to each solution. The resulting fluorescence intensities in each well in the first five minutes were recorded on a Spark™ 10M Multimode Microplate Reader (λex/em = 680/710 nm). The amount of CyPt at each time point was determined by a standard curve under the same conditions. Kinetics values, including Km and Vmax, were determined according to the Lineweaver-Burk plot.
Determination of the sensitivity of P-CyPt towards ALP. To evaluate the sensitivity of P-CyPt towards ALP, P-CyPt (10 μM) was incubated with varying concentrations of […]
30 min, and the fluorescence spectra were then recorded on a HORIBA Jobin Yvon Fluoromax-4 fluorometer, with an excitation at 680 nm. The resulting fluorescence intensities at 710 nm were plotted to the con centrations of ALP, and a linear regression fitted from 0 -20 U/L ALP was obtained, affording the slope k. The detection limit was calculated from 3σ/k, where σ represents the standard deviation of 11 blank […]
Determination of the specificity towards ALP. The specificity towards ALP in vitro was evaluated based on fluorescence, respectively. P-CyPt (10 μM) in Tris buffer was incubated with 10 nmol/L of MMP-2, 100 U/L of γ-glutamyl transferase (GGT), 100 U/L Cathepsin B (CTB), 0.2 μg/mL of Caspase-3/7, 2.5 mg/mL of Trypsin, 100 U/L of ALP or 100 U/L ALP pretreated with its inhibitors, Na 3VO4 (100 μM) for 10 min. The […]

[3] = ALP 30 min then GSH 10 mM 10 min (time 40)
[4] = ALP 30 min then GSH 10 mM 20 min (time 50)
[5] = ALP 30 min then GSH 10 mM 30 min (time 60)
[6] = ALP 30 min then GSH 10 mM 40 min (time 70)
[7] = ALP 30 min then GSH 10 mM 50 min (time 80)
[8] = ALP 30 min then GSH 10 mM 60 min (time 90)

T1 sequence (P19111 20-506 limits assumed): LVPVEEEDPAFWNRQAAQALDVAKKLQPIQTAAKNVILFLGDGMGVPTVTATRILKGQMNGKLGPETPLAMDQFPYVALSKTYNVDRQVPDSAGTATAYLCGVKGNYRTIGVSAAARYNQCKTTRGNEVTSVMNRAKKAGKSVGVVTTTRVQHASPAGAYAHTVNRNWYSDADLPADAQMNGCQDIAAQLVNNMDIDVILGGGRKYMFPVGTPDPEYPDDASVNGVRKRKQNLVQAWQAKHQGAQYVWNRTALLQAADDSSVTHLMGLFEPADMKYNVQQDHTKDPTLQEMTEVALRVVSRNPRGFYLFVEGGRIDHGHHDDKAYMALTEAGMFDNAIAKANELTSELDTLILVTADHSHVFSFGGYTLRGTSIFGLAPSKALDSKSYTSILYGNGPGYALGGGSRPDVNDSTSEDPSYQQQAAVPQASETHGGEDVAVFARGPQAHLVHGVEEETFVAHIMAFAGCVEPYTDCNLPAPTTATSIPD

In the case of `CC1(C)C(/C=C/C2=C3Oc4cc(O)c(Cl)cc4C=C3CCC2)=[N+](CCCNC(=O)[C@@H](Cc2ccccc2)NC(=O)[C@@H](Cc2ccccc2)NC(=O)CCC(=O)[O][Pt]([NH2])([NH2])([OH])([Cl])[Cl])c2ccccc21` [CyPt], the “amount of compound in the P-CyPt solution (HPLC, Fig. 2h)” value ([1]; 0 min) was 0.00, the “amount of compound in the P-CyPt solution (HPLC, Fig. 2h)” value ([1]; 5 min) was 28.25 and the “amount of compound in the P-CyPt solution (HPLC, Fig. 2h)” value ([1]; 10 min) was 54.36. The “amount of compound in the P-CyPt solution (HPLC, Fig. 2h)” value ([1]; 15 min) was 71.75, the “amount of compound in the P-CyPt solution (HPLC, Fig. 2h)” value ([1]; 20 min) was 94.94 and the “amount of compound in the P-CyPt solution (HPLC, Fig. 2h)” value ([1]; 30 min) was 100.00. For the same compound, the “reduction of CyPt in Pt^IVNPs into Cy-COOH (HPLC)” value ([2]; 5 or 10 mM GSH, after 60 min) was “completely reduced into Cy-COOH”, the “amount of compound in the P-CyPt solution (HPLC, Fig. 2h)” value [2, 3] was 82.67 and the “amount of compound in the P-CyPt solution (HPLC, Fig. 2h)” value [2, 4] was 59.68. For the same compound, the “amount of compound in the P-CyPt solution (HPLC, Fig. 2h)” value [2, 5] was 38.50, the “amount of compound in the P-CyPt solution (HPLC, Fig. 2h)” value [2, 6] was 22.16 and the “amount of compound in the P-CyPt solution (HPLC, Fig. 2h)” value [2, 7] was 9.16. For the same compound, the “amount of compound in the P-CyPt solution (HPLC, Fig. 2h)” value [2, 8] was 0.00.

For `CC1(C)C(/C=C/C2=C3Oc4cc(OP(=O)(O)O)c(Cl)cc4C=C3CCC2)=[N+](CCCNC(=O)[C@@H](Cc2ccccc2)NC(=O)[C@@H](Cc2ccccc2)NC(=O)CCC(=O)[O][Pt]([NH2])([NH2])([OH])([Cl])[Cl])c2ccccc21` [P-CyPt], the “conversion of P-CyPt into CyPt on incubation with ALP (HPLC)” value ([1]; 100 U/L ALP, Tris buffer pH 8.0, after 30 min) was “completely converted into CyPt”, the “Pt release (ICP-OES, Fig. 2h)” value ([1]; 0 min) was 0% and the “amount of compound in the P-CyPt solution (HPLC, Fig. 2h)” value ([1]; 0 min) was 100.00. The “mean size by DLS (Fig. 2i)” value ([1]; 0 min) was 0.00, the “mean size by TEM (Fig. 2i)” value ([1]; 0 min) was 0.00 and the “Pt release (ICP-OES, Fig. 2h)” value ([1]; 5 min) was 0%. The “amount of compound in the P-CyPt solution (HPLC, Fig. 2h)” value ([1]; 5 min) was 72.64, the “mean size by DLS (Fig. 2i)” value ([1]; 5 min) was 45.78 and the “mean size by TEM (Fig. 2i)” value ([1]; 5 min) was 54.14. The “Pt release (ICP-OES, Fig. 2h)” value ([1]; 10 min) was 0%, the “amount of compound in the P-CyPt solution (HPLC, Fig. 2h)” value ([1]; 10 min) was 46.65 and the “mean size by DLS (Fig. 2i)” value ([1]; 10 min) was 88.09. For the same compound, the “mean size by TEM (Fig. 2i)” value ([1]; 10 min) was 87.54, the “Pt release (ICP-OES, Fig. 2h)” value ([1]; 15 min) was 0% and the “amount of compound in the P-CyPt solution (HPLC, Fig. 2h)” value ([1]; 15 min) was 28.27. For the same compound, the “mean size by DLS (Fig. 2i)” value ([1]; 15 min) was 112.94, the “mean size by TEM (Fig. 2i)” value ([1]; 15 min) was 105.56 and the “Pt release (ICP-OES, Fig. 2h)” value ([1]; 20 min) was 0%. The “amount of compound in the P-CyPt solution (HPLC, Fig. 2h)” value ([1]; 20 min) was 6.15, the “mean size by DLS (Fig. 2i)” value ([1]; 20 min) was 150.95 and the “mean size by TEM (Fig. 2i)” value ([1]; 20 min) was 121.94. The “Pt release (ICP-OES, Fig. 2h)” value ([1]; 30 min) was 0%, the “amount of compound in the P-CyPt solution (HPLC, Fig. 2h)” value ([1]; 30 min) was 1.54 and the “mean size by DLS (Fig. 2i)” value ([1]; 30 min) was 162.05. The “mean size by TEM (Fig. 2i)” value ([1]; 30 min) was 152.65, the “Pt release (ICP-OES, Fig. 2h)” value [2, 3] was 19.98% and the “amount of compound in the P-CyPt solution (HPLC, Fig. 2h)” value [2, 3] was 0. For the same compound, the “mean size by DLS (Fig. 2i)” value [2, 3] was 133.97, the “mean size by TEM (Fig. 2i)” value [2, 3] was 128.24 and the “Pt release (ICP-OES, Fig. 2h)” value [2, 4] was 42.65%. The “amount of compound in the P-CyPt solution (HPLC, Fig. 2h)” value [2, 4] was 0, the “mean size by DLS (Fig. 2i)” value [2, 4] was 96.71 and the “mean size by TEM (Fig. 2i)” value [2, 4] was 91.24. The “Pt release (ICP-OES, Fig. 2h)” value [2, 5] was 64.34%, the “amount of compound in the P-CyPt solution (HPLC, Fig. 2h)” value [2, 5] was 0 and the “mean size by DLS (Fig. 2i)” value [2, 5] was 62.38. For the same compound, the “mean size by TEM (Fig. 2i)” value [2, 5] was 68.92, the “Pt release (ICP-OES, Fig. 2h)” value [2, 6] was 80.43% and the “amount of compound in the P-CyPt solution (HPLC, Fig. 2h)” value [2, 6] was 0. For the same compound, the “mean size by DLS (Fig. 2i)” value [2, 6] was 35.90, the “mean size by TEM (Fig. 2i)” value [2, 6] was 38.87 and the “Pt release (ICP-OES, Fig. 2h)” value [2, 7] was 95.70%. For the same compound, the “amount of compound in the P-CyPt solution (HPLC, Fig. 2h)” value [2, 7] was 0, the “mean size by DLS (Fig. 2i)” value [2, 7] was 14.84 and the “mean size by TEM (Fig. 2i)” value [2, 7] was 11.31. The “Pt release (ICP-OES, Fig. 2h)” value [2, 8] was 99.63%, the “amount of compound in the P-CyPt solution (HPLC, Fig. 2h)” value [2, 8] was 0 and the “mean size by DLS (Fig. 2i)” value [2, 8] was 0.00. For the same compound, the “mean size by TEM (Fig. 2i)” value [2, 8] was 0.00.
